The results in this text go back to US20040062744A1, “Bactericidal disinfectant, antibacterial drug, and antibacterial material” (NICCA CHEMICAL CO., LTD., priority 2003, published 2004).

For series [1], the system named is Staphyrococcus aureus (S. aureus, ATCC 6538P). As to the kind of experiment: Minimum bactericidal concentration (disinfecting effect), 1 minute contact. Format: cell-based. To be noted: contact 1 minute, culture 37° C. 20 hours. The method, then:
(§1) The disinfecting effect was evaluated in accordance with the following methods.
(§2) Seven microorganisms, i.e., Staphyrococcus aureus (S. aureus, ATCC 6538P), methicillin-resistant S. aureus (MRSA IID 1677), methicillin-resistant S. aureus (MRSA of a clinically isolated strain), Escherichia coli (E. coli, IFO 3301), Klebsiella pneumoniae (pneumoniae, IFO ATCC 4352), Pseudomonus aeruginosa (P. aeruginosa, IFO 3080) and Serratia marcescens (S. marcescens of a clinically isolated strain), were used for the test.
(§3) A test microorganism in an inoculating loop to streak a portion of 8 ml of a culture medium of soybean casein digest (SCD) on the surface and cultured at 37° C. for 18 hours. The obtained medium in an amount of 1 ml was diluted with the SCD culture medium to 1/10 of the original concentration. The diluted medium in an amount of 2 ml was brought into contact with 100 ml of the SCD culture medium. The obtained medium was cultured at 37° C. for 2 hours except that the medium containing P. aeruginosa was cultured for 4 hours and a liquid of a test microorganism was prepared. The liquid of a test microorganism contained 10^6 to 10^8 live microorganisms per 1 ml of the liquid.
(§4) A series of solutions containing a composition of a sterilizing disinfectant were prepared by dilution with a physiological saline in a manner such that each solution was diluted to one half the concentration to prepare a solution having the next lower concentration. The solutions of a series each in an amount of 10 ml were separately placed into test tubes, treated for disinfection in an autoclave and mixed with a liquid of a test microorganism in an amount of 0.1 ml. After the sterilizing disinfectant and the test microorganism were kept in contact with each other for 1 minute, the obtained liquid for inoculation in an amount of 0.1 ml was added to each of three SCD-LP (lecithin polysolvate) culture media (9 ml, each) which had been disinfected in advance. After the inoculated media were cultured at 37° C. for 20 hours, the presence or the absence of turbidity in the media was examined. When the medium was transparent, it was decided that no growth of the microorganism could be recognized and the result for this medium was expressed as −. When the medium was turbid, it was decided that growth of the microorganism could be recognized and the result for this medium was expressed as+. […] The minimum concentration of the composition of a sterilizing disinfectant which gave the result of − was used as the minimum bactericidal concentration (MBC).

Series [2] relates to Pseudomonus aeruginosa (P. aeruginosa, IFO 3080). The series is described as above. To be noted: contact 1 minute, culture 37° C. 20 hours. Format: cell-based. The method, then: as §1, §2, §3, §4
Series [3] relates to Escherichia coli (E. coli, IFO 3301). The series is described as above. The series is classed as cell-based. To be noted: contact 1 minute, culture 37° C. 20 hours. The method, then: as §1, §2, §3, §4
Series [4] has as its system Klebsiella pneumoniae (pneumoniae, IFO ATCC 4352). The description is as above. Format: cell-based. To be noted: K. pneumoniae; contact 1 minute; culture 37° C. 20 hours. On the procedure: as §1, §2, §3, §4
In series [5] the test system is Serratia marcescens (S. marcescens of a clinically isolated strain). The description is as above. Format: cell-based. To be noted: contact 1 minute, culture 37° C. 20 hours. The method, then:
as §1, §2, §3, §4

Series [6] relates to methicillin-resistant S. aureus (MRSA IID 1677). Described as above. To be noted: contact 1 minute, culture 37° C. 20 hours. Format: cell-based. On the procedure:
as §1, §2, §3, §4

The test system of series [7] is methicillin-resistant S. aureus (MRSA of a clinically isolated strain). Described as above. Format: cell-based. To be noted: contact 1 minute, culture 37° C. 20 hours. The method, then:
as §1, §2, §3, §4

Series [8] is described as follows: Test of skin stimulation (sealed filter paper on inner side of left upper arm). Format: in vivo, human. Also noted: key to primary stimulation (skin stimulation): −: negative (no reaction); ±: rubedo alone; +: rubedo and humectation or papula; ++: rubedo, edema and marked papula or small blisters. To be noted: for primary stimulation (skin stimulation): 0.02 ml, one per person. The method, then: The test of skin stimulation was conducted in accordance with the following method.
A sterilizing disinfectant in an amount of 0.02 ml was placed on a filter paper and attached to a portion at the inner side of the left upper arm of a person in a manner such that the paper was sealed. The test was conducted with five male persons (A to E) and five female persons (F to J). The primary stimulation was evaluated 30 minutes and 24 hours after the attachment of the paper and the result was classified into four levels. The criterion for the classification was as follows:
Criterion for the Classification
−: negative (no reaction)
+: rubedo and humectation or papula
++: rubedo, edema and marked papula or small blisters

In the case of “benzalkonium chloride [Comparative Example 4]”, the Minimum batericidal concentration in series [1] came out at 32 ppm; in series [2] it was 250 ppm; in series [3], 64 ppm; in series [4] it was 64 ppm; in series [5] it was 64 ppm; in series [6], 32 ppm. For the same substance, in series [7], the Minimum batericidal concentration stood at 64 ppm.
For “benzalkonium chloride [Comparative Example 5]”, the “primary stimulation (skin stimulation)” value was “− and ±” in series [8] (30 minutes after attachment); “+ and ++” in series [8] (24 hours after attachment). Besides, the skin disorder result in series [8] (summary in words of the test of skin stimulation) is recorded as “marked skin disorder”.
